# Test results taken from US20070136828A1, “Methods of using molecules related to organic cation transporter 3 (oct3) for treating depression, anxiety neuroses, drug dependencies, and other similar mental disorders” (Biostation Inc., priority 2004, published 2007).
# Like-named read-outs stand apart in the source and are kept apart here.
# Columns and labels:
# [1] = biological target: T1, kidney derived Caki-1 cells, which contain OCT3 (Homo sapiens, UniProt O75751); details: cited from earlier work
# T1 construct: kidney derived Caki-1 cells, which contain OCT3; endogenous in cells; host or cells: Caki-1
# T1 sequence (O75751 1-556): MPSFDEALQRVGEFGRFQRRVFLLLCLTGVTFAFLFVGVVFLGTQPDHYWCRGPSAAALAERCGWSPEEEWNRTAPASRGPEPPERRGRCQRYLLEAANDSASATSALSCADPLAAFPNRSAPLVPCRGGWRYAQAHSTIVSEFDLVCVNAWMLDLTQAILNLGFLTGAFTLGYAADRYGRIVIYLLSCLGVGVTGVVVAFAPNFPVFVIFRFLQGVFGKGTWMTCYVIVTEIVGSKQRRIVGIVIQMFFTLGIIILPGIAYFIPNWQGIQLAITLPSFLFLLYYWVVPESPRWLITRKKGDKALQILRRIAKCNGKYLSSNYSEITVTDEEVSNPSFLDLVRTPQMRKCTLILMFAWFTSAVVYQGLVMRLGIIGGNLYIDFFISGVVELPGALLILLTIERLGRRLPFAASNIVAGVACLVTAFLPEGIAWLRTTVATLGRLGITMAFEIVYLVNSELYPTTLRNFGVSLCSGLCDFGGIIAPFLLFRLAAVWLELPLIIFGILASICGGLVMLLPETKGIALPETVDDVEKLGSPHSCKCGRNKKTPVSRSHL
# [2] = biological target: T2, OCT3/uptake2 (Homo sapiens, UniProt O75751); details: cited from earlier work
# T2 sequence (O75751 1-556): T1 sequence (O75751 1-556)
# [3] = system: other OCT subtypes; details: cited from earlier work
# [4] = intravenous administration; cited from earlier work
# [5] = system: Male ddY mice; experiment: Forced swimming test (depression model); type: in vivo
# Method: Male ddY mice were used for the experiments. Mice raised for three or more days after purchase were made to swim for 300 seconds in a beaker (15 cm in diameter, 20 cm in height). Immobility time was measured, and the mice were divided into groups such that the average immobility time was approximately the same for each group. The day after swimming an antisense (OCT3 antisense) constructed from an OCT3 gene sequence was continuously infused into the cerebral ventricle, using an osmotic pump according to the reported literature (J. Chem. Neuroanat. 2000. 20: 375-87). Further, a group infused with Ringer's solution, which is an antisense solvent (the solvent group) and a group infused with a cDNA sequence with the same bases as the antisense but in a random sequence without homology to known genes (the scrambled OCT3 antisense group) were also prepared. One week after infusion the mice were returned to the beakers and made to swim for 300 seconds, and immobility time was measured. Imipramine anti-depressant was intraperitoneally administered 30 minutes before the beginning of the test.
# [6] = system: Male ddY mice; details: anti-depressant administration: chlordiazepoxide 100 mg/kg, imipramine 16 mg/kg; Behav Brain Res. 73, 43-46, 1996; cited from earlier work
# [7] = system: cultured porcine tubular cells; details: cited from earlier work
smiles,measurement,setting,value
"C[C@]12C[C@H](O)[C@H]3[C@@H](CCC4=CC(=O)CC[C@@]43C)[C@@H]1CC[C@@H]2C(=O)CO [Corticosterone, corticosterone]",uptake of MPP+,[1],suppresses
CCN1C(=Cc2cc(C)nc(-c3ccccc3)[n+]2C)C=Cc2ccccc21.[Cl-] [cyanine 863],inhibition of OCT3/uptake2,[2],potent OCT3 inhibitors
same,inhibitory activity towards other OCT subtypes,[3],potent inhibitory activity
CCN1/C(=C/c2ccc3ccccc3[n+]2CC)C=Cc2ccccc21.[I-] [decynium 22],inhibition of OCT3/uptake2,[2],potent OCT3 inhibitors
same,inhibitory activity towards other OCT subtypes,[3],potent inhibitory activity
"CC(C)N1C=CC(=Cc2ccc3ccccc3[n+]2C(C)C)c2ccccc21 [disprocynium24, 1,1′-diisopropyl-2,4′-cyanine]",inhibition of OCT3/uptake2,[2],potent inhibitor
same,inhibition of OCT3/uptake2,[2]; listed as disprocynium 24,potent OCT3 inhibitors
same,excretion of monoamine into urine,[4],strongly suppresses
same,inhibitory activity towards other OCT subtypes,[3],potent inhibitory activity
CN(C)CCCN1c2ccccc2CCc2ccccc21 [imipramine],immobility time (average value),"[5]; imipramine 4 mg/kg intraperitoneally 30 minutes before test, 300 seconds of swimming, FIG. 1B",245 ± 15 s
same,condition of immobility,[6],shortened
COc1cc(C(O)CN)ccc1O (stereo not shown) [normetanephrine],immobility time (average value),"[5]; normetanephrine 2.5 μg/0.25 μl/hr continuous infusion to cerebral ventricle, one week, FIG. 2",108 ± 29 s
CC(=O)[C@H]1CC[C@H]2[C@@H]3CCC4=CC(=O)CC[C@]4(C)[C@H]3CC[C@]12C [progesterone],noradrenaline uptake,[7],significantly reduce
